Assay [1] addresses T1, human cannabinoid receptor type 2 (Homo sapiens, UniProt P34972).
T1 construct: expressed in transfected cells; membrane preparation
Briefly: Human CB2 Radioligand Binding Assay. The note with it: membranes from stably transfected CHO CB2 cells. In a few lines: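 Filtration competition binding on membranes from CHO cells stably expressing human CB2, with [3H]CP-55,940 at its lot-specific Kd, in 50 mM Tris-HCl pH 7.4, EGTA, MgCl2, 5 mg/ml BSA, 1% DMSO; 90 min at 30° C. Compounds at 10 uM single point or dose-response; bound radioactivity by scintillation, 100 nM CP-55,940 as 100% efficacy.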

For assay [2], the target named is T2, human cannabinoid receptor type 1 (Homo sapiens, UniProt P21554).
T2 construct: purchased Perkin Elmer RBHCB1M; host or cells: HEK 293 EBNA cells
Briefly: Human CB1 Radioligand Binding Assay (basis of selectivity, CB2 vs. CB1). The note with it: CB1: HEK 293 EBNA cells expressing human CB1; CB2: CHO CB2 membranes. As for the experimental part: 2. Human CB1 Radioligand Binding Assay
The incubation buffer was composed of 50 mM Tris-HCl pH 7.4, 2.5 mM EDTA, 5 mM MgCl2, 5.0 mg/ml fatty acid free BSA and the wash buffer was composed of 50 mM Tris-HCl pH 7.4, 2.5 mM EDTA, 5 mM MgCl2, 0.5 mg/ml fatty acid free BSA.

[3] abbreviates: competition with [3H] CP-55,940, read-out: CB2 Ligand Binding Asssay EC50.

Like-named read-outs stand apart in the source and are kept apart here.

T1 sequence (P34972 whole entry): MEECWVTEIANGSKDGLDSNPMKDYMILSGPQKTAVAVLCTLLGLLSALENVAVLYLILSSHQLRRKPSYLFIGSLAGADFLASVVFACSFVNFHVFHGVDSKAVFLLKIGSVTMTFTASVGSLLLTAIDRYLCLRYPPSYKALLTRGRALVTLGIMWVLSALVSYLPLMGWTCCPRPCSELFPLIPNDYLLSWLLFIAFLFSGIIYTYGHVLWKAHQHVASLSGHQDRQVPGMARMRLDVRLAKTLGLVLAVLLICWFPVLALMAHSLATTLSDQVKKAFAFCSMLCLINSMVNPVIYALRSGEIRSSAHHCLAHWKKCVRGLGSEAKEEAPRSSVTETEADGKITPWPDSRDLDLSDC
T2 sequence (P21554 whole entry): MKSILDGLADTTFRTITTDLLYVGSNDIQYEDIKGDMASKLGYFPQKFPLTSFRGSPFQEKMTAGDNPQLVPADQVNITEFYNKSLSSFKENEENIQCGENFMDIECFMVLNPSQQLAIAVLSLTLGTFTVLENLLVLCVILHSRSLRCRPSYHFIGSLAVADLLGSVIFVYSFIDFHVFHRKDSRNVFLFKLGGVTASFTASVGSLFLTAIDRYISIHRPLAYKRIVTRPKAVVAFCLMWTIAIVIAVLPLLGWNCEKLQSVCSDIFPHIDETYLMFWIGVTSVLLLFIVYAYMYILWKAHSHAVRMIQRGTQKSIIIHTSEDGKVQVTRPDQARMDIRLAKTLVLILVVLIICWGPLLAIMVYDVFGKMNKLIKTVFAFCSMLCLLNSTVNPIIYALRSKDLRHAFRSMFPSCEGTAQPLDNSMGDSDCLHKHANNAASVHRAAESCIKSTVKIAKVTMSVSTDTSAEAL

A word on the EC50: it is the concentration at which the effect is half-maximal. As for `Clc1ccc2c(N3CCCC3)nc(-c3ccccc3Cl)nc2c1` [Example 235, 7-Chloro-2-(2-chlorophenyl)-4-(pyrrolidin-1-yl)quinazoline], in assay [1] (CB2 Ligand Binding Asssay EC50, competition with [3H] CP-55,940), the EC50 is over 1 µM. For the same molecule, the “Selectivity, CB2 vs. CB1” value in assay [2] is “− (− indicates ≦ 10−fold)”.
As for `Clc1ccccc1-c1nc(N2CCNCC2)c2c(Cl)cccc2n1` [Example 236, 5-Chloro-2-(2-chlorophenyl)-4-(piperazin-1-yl)quinazoline], the EC50 in assay [1] (setting [3]) was over 1 µM. For the same molecule, the “Selectivity, CB2 vs. CB1” value in assay [2] was “− (− indicates ≦ 10−fold)”.
In the same order, the values of `CC(=O)N1CCN(c2nc(-c3ccccc3F)nc3cccc(Cl)c23)CC1` [Example 237, 1-(4-(5-Chloro-2-(2-fluorophenyl)quinazolin-4-yl)piperazin-1-yl)ethanone] are under 1 µM and “+ (+ indicates > 10−fold)”.
On to `CCOC(=O)N1CCN(c2nc(-c3ccccc3F)nc3cccc(Cl)c23)CC1` [Example 238, Ethyl 4-(5-chloro-2-(2-fluorophenyl)quinazolin-4-yl)piperazine-1-carboxylate], for which the EC50 in assay [1] (setting [3]) was under 1 µM. In addition, the “Selectivity, CB2 vs. CB1” value in assay [2] is reported as “+ (+ indicates > 10−fold)”.
For `Fc1ccccc1-c1nc(N2CCCC2)c2c(Cl)cccc2n1` [Example 239, 5-Chloro-2-(2-fluorophenyl)-4-(pyrrolidin-1-yl)quinazoline], the EC50 in assay [1] (setting [3]) is under 1 µM. In assay [2], the “Selectivity, CB2 vs. CB1” value was “+ (+ indicates > 10−fold)”.
For the molecule `CC(=O)N1CCN(c2nc(-c3ccccc3Cl)nc3cccc(C(F)(F)F)c23)CC1` [Example 240, 1-(4-(2-(2-Chlorophenyl)-5-(trifluoromethyl)quinazolin-4-yl)piperazin-1-yl)ethanone], the EC50 in assay [1] (setting [3]) is under 1 µM. Besides, in assay [2], the “Selectivity, CB2 vs. CB1” value is given as “+ (+ indicates > 10−fold)”.
In the same order, the values of `CCOC(=O)N1CCN(c2nc(-c3ccccc3Cl)nc3cccc(C(F)(F)F)c23)CC1` [Example 241, Ethyl 4-(2-(2-chlorophenyl)-5-(trifluoromethyl)quinazolin-4-yl)piperazine-1-carboxylate] are under 1 µM and “+ (+ indicates > 10−fold)”.
Consider `FC(F)(F)c1cccc2nc(-c3ccccc3Cl)nc(N3CCCC3)c12` [Example 242, 2-(2-Chlorophenyl)-4-(pyrrolidin-1-yl)-5-(trifluoromethyl)quinazoline], for which the EC50 in assay [1] (setting [3]) was under 1 µM. Moreover, the “Selectivity, CB2 vs. CB1” value in assay [2] was “+ (+ indicates > 10−fold)”.
In the same order, the values of `COc1cccc2nc(-c3ccccc3Cl)nc(N3CCN(C(C)=O)CC3)c12` [Example 243, 1-(4-(2-(2-Chlorophenyl)-5-methoxyquinazolin-4-yl)piperazin-1-yl)ethanone] are under 1 µM and “+ (+ indicates > 10−fold)”.
With `CCOC(=O)N1CCN(c2nc(-c3ccccc3Cl)nc3cccc(OC)c23)CC1` [Example 244, Ethyl 4-(2-(2-chlorophenyl)-5-methoxyquinazolin-4-yl)piperazine-1-carboxylate], in assay [1] (setting [3]), the EC50 was under 1 µM. Moreover, in assay [2], the “Selectivity, CB2 vs. CB1” value is reported as “+ (+ indicates > 10−fold)”.
In the same order, the values of `COc1cccc2nc(-c3ccccc3Cl)nc(N3CCCC3)c12` [Example 245, 2-(2-Chlorophenyl)-5-methoxy-4-(pyrrolidin-1-yl)quinazoline] are under 1 µM and “+ (+ indicates > 10−fold)”.
In the same order, the values of `CC(=O)N1CCN(c2nc(-c3ccccc3Cl)nc3cccc(F)c23)CC1` [Example 246, 1-(4-(2-(2-Chlorophenyl)-5-fluoroquinazolin-4-yl)piperazin-1-yl)ethanone] are under 1 µM and “+ (+ indicates > 10−fold)”.
On to `CCOC(=O)N1CCN(c2nc(-c3ccccc3Cl)nc3cccc(F)c23)CC1` [Example 247, Ethyl 4-(2-(2-chlorophenyl)-5-fluoroquinazolin-4-yl)piperazine-1-carboxylate], for which the EC50 in assay [1] (setting [3]) was under 1 µM. The “Selectivity, CB2 vs. CB1” value in assay [2] is recorded as “+ (+ indicates > 10−fold)”.
The matching figures for `Fc1cccc2nc(-c3ccccc3Cl)nc(N3CCCC3)c12` [Example 248, 2-(2-Chlorophenyl)-5-fluoro-4-(pyrrolidin-1-yl)quinazoline]: under 1 µM and “+ (+ indicates > 10−fold)”.
In the same order, the values of `COc1ccc2nc(-c3ccc(C(C)(C)C)cc3)nc(N3CCN(C(C)=O)CC3)c2c1` [Example 249, 1-(4-(2-(4-tert-Butylphenyl)-6-methoxyquinazolin-4-yl)piperazin-1-yl)ethanone] are under 1 µM and “+ (+ indicates > 10−fold)”.
`CCOC(=O)N1CCN(c2nc(-c3ccc(C(C)(C)C)cc3)nc3ccc(OC)cc23)CC1` [Example 250, Ethyl 4-(2-(4-tert-butylphenyl)-6-methoxyquinazolin-4-yl)piperazine-1-carboxylate]: the EC50 in assay [1] (setting [3]) was under 1 µM. The “Selectivity, CB2 vs. CB1” value in assay [2] is recorded as “+ (+ indicates > 10−fold)”.
As to `COc1ccc2nc(-c3ccc(C(C)(C)C)cc3)nc(N3CCCC3)c2c1` [Example 251, 2-(4-tert-Butylphenyl)-6-methoxy-4-(pyrrolidin-1-yl)quinazoline], the EC50 in assay [1] (setting [3]) is under 1 µM. In addition, in assay [2], the “Selectivity, CB2 vs. CB1” value is on record as “+ (+ indicates > 10−fold)”.
With `CCOC(=O)N1CCN(c2nc(-c3ccc(C(C)(C)C)cc3)nc3ccc(Cl)cc23)CC1` [Example 252, Ethyl 4-(2-(4-tert-butylphenyl)-6-chloroquinazolin-4-yl)piperazine-1-carboxylate], the EC50 in assay [1] (setting [3]) is over 1 µM. Also, the “Selectivity, CB2 vs. CB1” value in assay [2] is listed as “− (− indicates ≦ 10−fold)”.
For the molecule `CC(=O)N1CCN(c2nc(-c3ccc(Cl)cc3)nc3ccc(Cl)cc23)CC1` [Example 253, 1-(4-(6-Chloro-2-(4-chlorophenyl)quinazolin-4-yl)piperazin-1-yl)ethanone], the EC50 in assay [1] (setting [3]) was over 1 µM. The “Selectivity, CB2 vs. CB1” value in assay [2] is “− (− indicates ≦ 10−fold)”.
On to `CC(=O)N1CCN(c2nc(-c3ccccc3Cl)nc3cccc(C)c23)CC1` [Example 254, 1-(4-(2-(2-Chlorophenyl)-5-methylquinazolin-4-yl)piperazin-1-yl)ethanone], for which, in assay [1] (setting [3]), the EC50 was under 1 µM. In addition, the “Selectivity, CB2 vs. CB1” value in assay [2] is listed as “− (− indicates ≦ 10−fold)”.
As to `CCOC(=O)N1CCN(c2nc(-c3ccccc3Cl)nc3cccc(C)c23)CC1` [Example 255, Ethyl 4-(2-(2-chlorophenyl)-5-methylquinazolin-4-yl)piperazine-1-carboxylate], the EC50 in assay [1] (setting [3]) is under 1 µM. Moreover, the “Selectivity, CB2 vs. CB1” value in assay [2] is “+ (+ indicates > 10−fold)”.
The matching figures for `Cc1cccc2nc(-c3ccccc3Cl)nc(N3CCCC3)c12` [Example 256, 2-(2-Chlorophenyl)-5-methyl-4-(pyrrolidin-1-yl)quinazoline]: under 1 µM and “+ (+ indicates > 10−fold)”.
In the same order, the values of `Cn1ccnc1N1CCN(c2nc(-c3ccccc3Cl)nc3ccccc23)CC1` [Example 257, 2-(2-Chlorophenyl)-4-(4-(1-methyl-1H-imidazol-2-yl)piperazin-1-yl)quinazoline] are over 1 µM and “− (− indicates ≦ 10−fold)”.
Regarding `Clc1ccccc1-c1nc(NCCCn2ccnc2)c2ccccc2n1` [Example 258, N-(3-(1H-Imidazol-1-yl)propyl)-2-(2-chlorophenyl)quinazolin-4-amine], the EC50 in assay [1] (setting [3]) was over 1 µM. The “Selectivity, CB2 vs. CB1” value in assay [2] is on record as “− (− indicates ≦ 10−fold)”.
As to `CN(CCCn1ccnc1)c1nc(-c2ccccc2Cl)nc2ccccc12` [Example 259, N-(3-(1H-Imidazol-1-yl)propyl)-2-(2-chlorophenyl)-N-methylquinazolin-4-amine], the EC50 in assay [1] (setting [3]) is over 1 µM. The “Selectivity, CB2 vs. CB1” value in assay [2] was “− (− indicates ≦ 10−fold)”.
In the same order, the values of `CCC(=O)N1CCN(c2nc(-c3ccccc3Cl)nc3cccc(Cl)c23)CC1` [Example 260, 1-(4-(5-Chloro-2-(2-chlorophenyl)quinazolin-4-yl)piperazin-1-yl)propan-1-one] are under 1 µM and “+ (+ indicates > 10−fold)”.
The matching figures for `COC(=O)N1CCN(c2nc(-c3ccccc3Cl)nc3cccc(Cl)c23)CC1` [Example 261, Methyl 4-(5-chloro-2-(2-chlorophenyl)quinazolin-4-yl)piperazine-1-carboxylate]: under 1 µM and “+ (+ indicates > 10−fold)”.
In the same order, the values of `O=C(c1ncc[nH]1)N1CCN(c2nc(-c3ccccc3Cl)nc3ccccc23)CC1` [Example 262, (4-(2-(2-Chlorophenyl)quinazolin-4-yl)piperazin-1-yl)(1H-imidazol-2-yl)methanone] are over 1 µM and “− (− indicates ≦ 10−fold)”.
As to `Cn1ccnc1C(=O)N1CCN(c2nc(-c3ccccc3Cl)nc3ccccc23)CC1` [Example 263, (4-(2-(2-chlorophenyl)quinazolin-4-yl)piperazin-1-yl)(1-methyl-1H-imidazol-2-yl)methanone], the EC50 in assay [1] (setting [3]) is over 1 µM. Besides, the “Selectivity, CB2 vs. CB1” value in assay [2] was “− (− indicates ≦ 10−fold)”.
For the molecule `Clc1ccccc1-c1nc(N2CCN(c3nccs3)CC2)c2ccccc2n1` [Example 264, 2-(4-(2-(2-Chlorophenyl)quinazolin-4-yl)piperazin-1-yl)thiazole], in assay [1] (setting [3]), the EC50 was over 1 µM. In assay [2], the “Selectivity, CB2 vs. CB1” value is “− (− indicates ≦ 10−fold)”.
